In US4048334A, “Active derivatives of methylamino in therapeutic compositions and methods of use” (priority 1974, dated 1977):

Key:
[1] = test system: reserpine-induced and neuroleptic-induced catatonia and catalepsy; experiment: Central noradrenergic and dopaminergic properties (general statement); settings: in vivo
Text: These latter properties manifest themselves by an inhibitory action on reserpine-induced and neuroleptic-induced catatonia and catalepsy.

[2] = test system: peripheral noradrenergic phenomena (arterial pressure, nictitating membrane); experiment: Influence on peripheral noradrenergic phenomena (norepinephrine, arterial pressure and nictitating membrane)
Procedure: A cat, anaesthetized with pentobarbital, received a sufficient dose of norepinephrine to increase arterial pressure but not sufficient to cause contraction of the nictitating membrane. Arterial pressure was measured at the carotid immediately after administration of the dose of norepinephrine.

CCCC(N)(CCC)CCC [Compound 1]
degree of activity [1]: marked degree of activity | Contractile reaction of the nictitating membrane with electric stimulation ([2]; cumulative dose 0.1 mg/kg i.v.): 15 mm | Contractile reaction of the nictitating membrane without electric stimulation ([2]; cumulative dose 0.1 mg/kg i.v.): 0 mm | Increase in arterial pressure after injection of norepinephrine ([2]; cumulative dose 0.1 mg/kg i.v.): 18 mm Hg | Contractile reaction of the nictitating membrane with electric stimulation ([2]; cumulative dose 1 mg/kg i.v.): 16 mm | Contractile reaction of the nictitating membrane without electric stimulation ([2]; cumulative dose 1 mg/kg i.v.): 0 mm | Increase in arterial pressure after injection of norepinephrine ([2]; cumulative dose 1 mg/kg i.v.): 25 mm Hg | Contractile reaction of the nictitating membrane with electric stimulation ([2]; cumulative dose 3 mg/kg i.v.): 17 mm | Contractile reaction of the nictitating membrane without electric stimulation ([2]; cumulative dose 3 mg/kg i.v.): 0 mm | Increase in arterial pressure after injection of norepinephrine ([2]; cumulative dose 3 mg/kg i.v.): 29 mm Hg | Contractile reaction of the nictitating membrane with electric stimulation ([2]; cumulative dose 5 mg/kg i.v.): 16 mm | Contractile reaction of the nictitating membrane without electric stimulation ([2]; cumulative dose 5 mg/kg i.v.): 0 mm | Increase in arterial pressure after injection of norepinephrine ([2]; cumulative dose 5 mg/kg i.v.): 25 mm Hg | Contractile reaction of the nictitating membrane with electric stimulation ([2]; cumulative dose 10 mg/kg i.v.): 12 mm | Contractile reaction of the nictitating membrane without electric stimulation ([2]; cumulative dose 10 mg/kg i.v.): 0 mm | Increase in arterial pressure after injection of norepinephrine ([2]; cumulative dose 10 mg/kg i.v.): 22 mm Hg | ganglioplegic action ([2]; in vivo): is not a ganglioplegic agent | potentiation of (peripheral) effects of norepinephrine ([2]; in vivo): does not potentiate the effects either of exogenous norepinephrine or of endogenous norepinephrine | potentiation of (peripheral) effects of norepinephrine ([2]; in vivo, listed as preferred compound of the invention): does not potentiate the peripheral effects of norepinephrine
